Test results published in patent US20110045065A1, “SUBSTANCE HAVING ANTIOXIDANT, GEROPROTECTIVE AND ANTI-ISCHEMIC ACTIVITY AND METHOD FOR THE PREPARATION THEREOF” (priority 2005, published 2011).

Tests used:
tissue of the eye = test: Local irritant action to tissue of the eye; type: in vivo, rabbit; settings: six rabbits, single instillation of 1% solution, within 1 min after dropping
Experimental: The experimental measurements are carried out on six rabbits. All animals have been subjected to single instillation of 1% solution of compound I into the right eye and 1% solution of emoxypine into the left eye. The front section of the eye is controlled by a focal illumination method with a 20 D lens within 1 min. after dropping.

[1] = test system: external segments of photoreceptor cells; test: Ascorbate-induced peroxidation of external segments of photoreceptor cells; type: biochemical, pig
Excerpt: The external segments of photoreceptor cells are obtained from pig retinas according to standard procedure, using methods of differential centrifuging in a saccharose density gradient. […] Subsequently, the process was stopped by 15% trichloroacetic acid, and the concentration of TBK-active products has been determined. Samples being free of compound Ic were used as a control.
In these experiments a comparison of the speed of ascorbate-induced peroxidation of external segments of photoreceptor cells of pig eyes has been carried out, said comparison being determined with respect to the accumulation of TBK-active products in the presence of different compound I salts.

[2] = test system: acute myocardial ischemia (occlusion of the coronary artery of rats); test: Sizes of necrosis and ischemia zones in acute myocardial ischemia; type: in vivo, rat
Experimental: The experiments are carried out with non-pedigree male rats having a weight of 250-300 g, which have been anesthetized with sodium ethaminale (40 mg/kg intraperitoneally). A myocardial infarction was modeled for animals, transferred to controlled breathing, by ligation of a descending branch of the left-hand coronary artery to a level of the lower edge of an auricula atrii.
The sizes of necrosis zones and ischemia zones have been determined within 4 hours after occlusion of the coronary artery by a differential indicator method, the principle of which is based on separate quantitative determination of Evans' blue (indicator of an ischemia zone) and red phormazane (indicator of an necrosis zone).

[3] = test system: lipofuscin induced cardiolipin photoperoxidation; test: Inhibition of lipofuscin induced cardiolipin liposome photoperoxidation; type: biochemical, human; settings: for Concentration of TBK-active products / Inhibition: 2 mM compound; for Inhibiting / protective effect regarding phototoxic action of lipofuscin granules: result in words
Experimental: Liposomes are prepared from methanolic solution of cardiolipin (initial concentration: 5 mg/ml) by evaporation of methanol and solubilization of cardiolipin in a phosphate buffer. A mixture comprising a suspension of liposomes and lipofuscin granules, isolated from tissue of a retinal pigmentary epithelium of a human eye, is subjected to irradiation with intensive blue light under constant stirring. Concentration of lipid peroxidation products (TBK-active products) is determined after 20, 40, 60 and 90 minutes. The experimental sample contained 2 mM of a solution of compound Ic, or 2 mM of a solution of mexydole.

[4] = Antiradical activity by chemiluminescence (rate constant k7); type: physicochemical
Experimental: The efficiency of 3-hydroxypyridine derivatives as inhibitors of free radical reactions was determined by hemiluminescent method by means of measurement of speed constants of their reaction with ethyl-benzene k7 peroxide radicals.
The measurements of intensity of chemiluminescence (HL) have been carried out with an apparatus CNK-7, designed and made by IHF RAN USSR. A photomultiplier FAU-38 is used as an optical receiver. The fixed concentration of radicals during oxidation of […] (cumole) is controlled by an initiator being azo-bis-isobutyronitrile.
In order to increase HL emission the activator chelate Eu (europium tristenoyl triphtoroacetonate with 1,10-phenatroline) has been used that has allowed to conduct measurements at low speed values of radical initiation (W1=10^−8-10^−9 mol/I.s.) and, therefore, at small amounts of added sample. A weighed amount of samples studied was diluted in an suitable solvent (chlorobenzene or acetonitrile) and a small amount of the prepared solution (0.1-0.25 ml) was added to the reaction mixture (5-6 ml), arranged in a temperature-controlled reaction vessel of the HL-device. The change of emission intensity was recorded.

traumatic hemophthalmia = test: Experimental traumatic hemophthalmia: biochemical parameters in blood serum, tear liquid, anterior chamber liquid and eye tissue; type: in vivo, chinchilla rabbits
Experimental: Studies were carried out in 12 chinchilla rabbits having body weight 2.0-2.5 kg. A traumatic hemophthalmia was modeled by introduction of 0.5 to 0.7 ml of autoblood into a vitreous body through a puncture in a sclera on distance of 5 mm from a limbus, under a local anaesthesia. The basic group made with 6 rabbits (12 eyes), daily received a formulation prepared in accordance with the present invention parabulbarly (0.5 ml of 1% solution). A control group presented by 6 animals (12 eyes), daily received parabulbar emoxipin (2-ethyl-6-methyl-3-hydroxypiridin) in the same dosage. Treatment was carried out within 14 days after a trauma.
The materials used for biochemical examination were as follows: blood, liquid of the anterior chamber, tear liquid, tunics of eyeglobe (retina, a vitreous body). The blood was taken from the aural vein in an amount of 3 ml. Sampling of tear liquid was carried out by a microcapillary after instillation of distilled water into the conjunctival cavity. Liquid of the anterior chamber was obtained by paracentesis. The blood sampling as well as liquid of the anterior chamber and teat liquid were carried out on the 1st, 7th and 14th day of the experiment. On the 15th day of the studies, the animals were killed (pithed) by air embolism and both the eyes were enucleated. The eyes were prepared by tunic separation. Retina and vitreous body were obtained.

[5] = rats, 16 mg/kg, within 4 hours after occlusion of the coronary artery
[6] = 1st day, anterior chamber liquid (ACL)
[7] = 7th day, anterior chamber liquid (ACL)
[8] = 14th day, anterior chamber liquid (ACL)

2,4,6-trimethyl-3-oxypyridine succinate [Compound Ic]
Local irritant reaction of conjunctiva, eyeglobe and cornea (tissue of the eye): do not show local irritating action on tissue of the eye
Local irritant reaction of conjunctiva, eyeglobe and cornea (tissue of the eye; listed as I): not detected
Speed of accumulation of TBK-active products for 30 min of reacting ([1]; compound 43 mM): 0.05 nmol/mg
Inhibition ([1]; compound 43 mM, 30 min of reacting): 93.5%
Inhibition ([1]; response time 15 min, 17 mM compound, 0.5 mM ascorbic acid): 49.6%
Inhibition ([1]; response time 30 min, 17 mM compound, 0.5 mM ascorbic acid): 32.3%
Ratio of necrosis zone to ischemia zone [2, 5]: 11 ± 3.3%
Ratio of necrosis zone to total mass of the myocardium [2, 5]: 4 ± 2.3%
Anti-ischemic activity in comparison ([2]; result in words): considerably higher anti-ischemic activity than the other 3-oxypyridines
Concentration of TBK-active products ([3]; radiation time 0 min): 1.3 nmol/mg lipid
Inhibition ([3]; radiation time 0 min): 0%
Concentration of TBK-active products ([3]; radiation time 20 min): 2.42 nmol/mg lipid
Inhibition ([3]; radiation time 20 min): 20%
Concentration of TBK-active products ([3]; radiation time 40 min): 2.53 nmol/mg lipid
Inhibition ([3]; radiation time 40 min): 28%
Concentration of TBK-active products ([3]; radiation time 60 min): 2.85 nmol/mg lipid
Inhibition ([3]; radiation time 60 min): 40%
Concentration of TBK-active products ([3]; radiation time 90 min): 3.28 nmol/mg lipid
Inhibition ([3]; radiation time 90 min): 40%
Inhibiting / protective effect regarding phototoxic action of lipofuscin granules [3]: active inhibitor
Inhibiting / protective effect regarding phototoxic action of lipofuscin granules ([3]; listed as I): protective effect
Antiradical activity in comparison with mexydole ([4]; result in words): two times higher antiradical activity
k7 × 10^−4 ([4]; speed constant of reaction with ethyl-benzene peroxide radicals): 9.5 l/mol × sec
AOA (traumatic hemophthalmia; [6]): 0.4 ± 0.01 relative unit
Concentration of TBA-active products (traumatic hemophthalmia; [6]): 0.97 ± 0.18 nmol/mL
Protein concentration (traumatic hemophthalmia; [6]): 3.1 ± 1.2 mg/mL
AOA (traumatic hemophthalmia; 1st day, blood serum (BS)): 1.7 ± 0.3 relative unit
Concentration of TBA-active products (traumatic hemophthalmia; 1st day, blood serum (BS)): 1.29 ± 0.13 nmol/mL
Protein concentration (traumatic hemophthalmia; 1st day, blood serum (BS)): 90.0 ± 6.0 mg/mL
AOA (traumatic hemophthalmia; 1st day, tear liquid (TL)): 0.23 ± 0.02 relative unit
Concentration of TBA-active products (traumatic hemophthalmia; 1st day, tear liquid (TL)): 0.14 ± 0.01 nmol/mL
Protein concentration (traumatic hemophthalmia; 1st day, tear liquid (TL)): 0.32 ± 0.2 mg/mL
AOA of basic group relative to control group, average of all measured substrata (traumatic hemophthalmia; 7th day): 1.5 times
AOA (traumatic hemophthalmia; 7th day, anterior chamber liquid): 0.8±0.07 /100 mcl
AOA (traumatic hemophthalmia; [7]): 0.8 ± 0.07 relative unit
Concentration of TBA-active products (traumatic hemophthalmia; [7]): 0.8 ± 0.5 nmol/mL
Protein concentration (traumatic hemophthalmia; [7]): 4.4 ± 1.2 mg/mL
AOA (traumatic hemophthalmia; 7th day, blood serum): 2.4±0.02 /100 mcl
AOA (traumatic hemophthalmia; 7th day, blood serum (BS)): 2.4 ± 0.02 relative unit
Concentration of TBA-active products (traumatic hemophthalmia; 7th day, blood serum (BS)): 1.17 ± 0.05 nmol/mL
Protein concentration (traumatic hemophthalmia; 7th day, blood serum (BS)): 82.4 ± 1.3 mg/mL
AOA (traumatic hemophthalmia; 7th day, tear liquid): 0.24±0.02 /200 mcl
AOA (traumatic hemophthalmia; 7th day, tear liquid (TL)): 0.24 ± 0.02 relative unit
Concentration of TBA-active products (traumatic hemophthalmia; 7th day, tear liquid (TL)): 0.13 ± 0.05 nmol/mL
Protein concentration (traumatic hemophthalmia; 7th day, tear liquid (TL)): 0.7 ± 0.2 mg/mL
AOA (traumatic hemophthalmia; 14th day, anterior chamber liquid): 0.5±0.05 /100 mcl
AOA (traumatic hemophthalmia; [8]): 0.5 ± 0.05 relative unit
Concentration of TBA-active products (traumatic hemophthalmia; [8]): 0.6 ± 0.2 nmol/mL
Protein concentration (traumatic hemophthalmia; [8]): 4.1 ± 1.1 mg/mL
AOA (traumatic hemophthalmia; 14th day, blood serum): 1.9±0.7 /100 mcl
AOA (traumatic hemophthalmia; 14th day, blood serum (BS)): 1.9 ± 0.7 relative unit
Concentration of TBA-active products (traumatic hemophthalmia; 14th day, blood serum (BS)): 0.9 ± 0.15 nmol/mL
Protein concentration (traumatic hemophthalmia; 14th day, blood serum (BS)): 47.0 ± 3.0 mg/mL
AOA (traumatic hemophthalmia; 14th day, tear liquid): 0.08±0.02 /200 mcl
AOA (traumatic hemophthalmia; 14th day, tear liquid (TL)): 0.08 ± 0.02 relative unit
Concentration of TBA-active products (traumatic hemophthalmia; 14th day, tear liquid (TL)): 0.04 ± 0.07 nmol/mL
Protein concentration (traumatic hemophthalmia; 14th day, tear liquid (TL)): 0.6 ± 0.2 mg/mL
AOA (traumatic hemophthalmia; Retina, listed under 14th day (eyes enucleated on the 15th day)): 0.4 ± 0.07 relative unit
AOA (traumatic hemophthalmia; Vitreous body, listed under 14th day (eyes enucleated on the 15th day)): 3.5 ± 0.9 relative unit
Antioxidant activity in vivo in comparison (traumatic hemophthalmia; conclusion in words): higher antioxidant activity than emoxipin
Augmentation of AOA in basic group in comparison with the control group (traumatic hemophthalmia; eye tunics, a retina and a vitreous body): 2 times
